These results are taken from patent publication US7563774B2, “Combination of FBPase inhibitors and antidiabetic agents useful for the treatment of diabetes” (Metabasis Therapeutics, Inc., priority 2000, dated 2009).

The test system of one data set is Goto-Kakizaki rats. The data set can be described thus: Acute combination treatment of an alpha glucosidase inhibitor and an FBPase inhibitor in Goto-Kakizaki rats (Example EE). The data set is classed as in vivo, rat. The protocol: Goto-Kakizaki rats, an animal model of lean NIDDM, were purchased at 5 weeks of age from Charles River Japan, Inc. (Tokyo, Japan). The rats were maintained under standard vivarium conditions (24-26° C., 12-hour light cycle, 12-hour dark cycle) and received standard chow and water ad libitum. At 18 weeks of age, animals were divided into 4 groups (n=5/group). The treatment groups were control, Compound J, acarbose (Bayer, Japan), and the combination of Compound J and acarbose. All animals were given 1 g/kg of corn starch by oral gavage. […] Acarbose was administered orally at a dose of 1 mg/kg simultaneously with starch. Blood glucose levels in tail vein samples were measured by means of a Glucoloader-F, an automatic glucose analyzer, (A&T Co., Ltd., Tokyo, Japan).

The test system of data set [1] is C57BL/KsJ db/db mice. Description: Acute combination treatment of a biguanide and an FBPase inhibitor in db/db mice (Example DD). The data set is classed as in vivo, mouse. The protocol:
Male C57BL/KsJ db/db mice were purchased at 5 weeks of age from Clea Japan, Inc. (Tokyo, Japan). The mice were maintained under standard vivarium conditions (24-26° C., 12-hour light cycle, 12-hour dark cycle) and received standard chow and water ad libitum. […] The treatment groups were control, compound J , metformin, and the combination of compound J and metformin. […] Food was removed after treatment. Blood glucose levels in tail vein samples were measured by means of a Glucoloader-F, an automatic glucose analyzer, (A&T Co., Ltd., Tokyo, Japan).

For data set [2], the system named is C57BL/KsJ db/db mice. Description: Acute combination treatment of insulin and Compound G in db/db mice (Example Z). The data set is classed as in vivo, mouse. The protocol:
Male C57BL/KsJ db/db mice were purchased at 5 weeks of age from Clea Japan, Inc. (Tokyo, Japan). The mice were maintained under standard vivarium conditions (24-26° C., 12-hour light cycle, 12-hour dark cycle) and received standard chow and water ad libitum. At 20 weeks of age, animals were divided into 4 groups (n=6/group). The treatment groups were control, compound G, insulin, and the combination of compound G and insulin. […] Insulin (human recombinant insulin, Penfill R300, Novo Nordisk, Denmark) was injected subcutaneously at a dose of 1.5 U/kg. Food was removed after treatment. Blood glucose levels in tail vein samples were measured by means of a Glucoloader-F, an automatic glucose analyzer, (A&T Co., Ltd., Tokyo, Japan).

Data set [3] has as its system C57BL/KsJ db/db mice. The data set can be described thus: Chronic combination treatment of insulin and Compound G in db/db mice (Example AA). The data set is classed as in vivo, mouse. The protocol: Male C57BL/KsJ db/db mice were purchased at 5 weeks of age from Clea Japan, Inc. (Tokyo, Japan). The mice were maintained under standard vivarium conditions (24-26° C., 12-hour light cycle, 12-hour dark cycle) and received standard chow and water ad libitum. At 16 weeks of age, animals were divided into 2 groups (n=5 or 9-10/group). Both groups were subcutaneously injected with human recombinant insulin (Penfill N300, Novo Nordisk, Denmark) on a daily basis to adjust plasma glucose levels to the target range of 250 to 300 mg/dL.

In data set [4] the test system is C57BL/KsJ db/db mice. Description: Chronic combination treatment of insulin and Compound J in db/db mice (Example BB). The data set is classed as in vivo, mouse. The protocol:
Male C57BL/KsJ db/db mice were purchased at 5 weeks of age from Clea Japan, Inc. (Tokyo, Japan). […] At 19 weeks of age, animals were divided into 2 groups (n=6/group). […] Blood glucose levels in tail vein samples were measured by means of a Glucoloader-F, an automatic glucose analyzer, (A&T Co., Ltd., Tokyo, Japan).

The subject of the next data set is Goto-Kakizaki (GK) rats. Description: Acute combination treatment of insulin and an FBPase inhibitor in the Goto-Kakizaki rat (Example CC). Type of data set: in vivo. The protocol:
Male Goto-Kakizaki (GK) rats were purchased at 9 weeks of age from Charles River Japan, Inc. (Tokyo, Japan). The rats were maintained under standard vivarium conditions (24-26° C., 12-hour light cycle, 12-hour dark cycle) and received standard chow and water ad libitum. At 48 weeks of age, animals were divided into 4 groups (n=6/group) after an overnight fast. The treatment groups were control, Compound J, insulin, and combination of Compound J and insulin. […] Insulin (human recombinant insulin, Penfill N300, Novo Nordisk, Denmark) was subcutaneously injected at the dose of 1.5 U/kg. Blood glucose levels in tail vein samples were measured by means of a Glucoloader-F, an automatic glucose analyzer, (A&T Co., Ltd., Tokyo, Japan).

Data set [5] relates to Sprague-Dawley or Wistar rats. As to conditions: fasted rat, cited from earlier work; for ED50: 2 h.

Like-named read-outs stand apart in the source and are kept apart here.

With `C[C@H]1O[C@H](O[C@H]2[C@H](O)[C@@H](O)[C@@H](O[C@H]3[C@H](O)[C@@H](O)C(O)O[C@@H]3CO)O[C@@H]2CO)[C@H](O)[C@@H](O)[C@@H]1N[C@H]1C=C(CO)[C@@H](O)[C@H](O)[C@H]1O` (some centres unmarked) [Acarbose, acarbose, reference compound], the “Plasma Glucose, relative value (% of pre-treatment value)” value is “(129.4 +/− 2.8) %” with Goto-Kakizaki rats (0 min); “(139.5 +/− 6.0) %” in the data set on Goto-Kakizaki rats (30 min after starch); “(141.3 +/− 4.9) %” with Goto-Kakizaki rats (60 min after starch); “(119.9 +/− 4.9) %” with Goto-Kakizaki rats (120 min after starch); “(93.5 +/− 4.7) %” in the data set with Goto-Kakizaki rats (240 min after starch); “(100.0 +/− 0.0) %” in the data set with Goto-Kakizaki rats (−60 min). For the same molecule, the “Plasma Glucose” value in the data set with Goto-Kakizaki rats (0 min, Compound J 10 mg/kg p.o. at −60 min, acarbose 1 mg/kg p.o. with starch) was 226.4 ± 5.3 mg/dL; with Goto-Kakizaki rats (30 min after starch) it was 243.8 ± 8.5 mg/dL; with Goto-Kakizaki rats (60 min after starch), 247.2 ± 8.2 mg/dL; in the data set on Goto-Kakizaki rats (120 min after starch), 209.4 ± 5.9 mg/dL; with Goto-Kakizaki rats (240 min after starch), 164.2 ± 10.7 mg/dL; in the data set with Goto-Kakizaki rats (−60 min relative to starch 1 g/kg), 175.4 ± 5.9 mg/dL.
Regarding `CN(C)C(=N)N=C(N)N` [Metformin, metformin, reference compound], the “Plasma Glucose, % of pretreatment value” in the data set with C57BL/KsJ db/db mice [1] (after 2 hour) was “(67.7 +/− 1.9) %”; in the data set on C57BL/KsJ db/db mice [1] (after 4 hour) it was “(66.4 +/− 3.1) %”; in the data set on C57BL/KsJ db/db mice [1] (after 6 hour), “(67.7 +/− 4.1) %”; in the data set on C57BL/KsJ db/db mice [1] (after 8 hour), “(79.1 +/− 5.6) %”; in the data set on C57BL/KsJ db/db mice [1] (before (0 hour)) it was “(100.0 +/− 0.0) %”. Besides, the “Plasma Glucose” value with C57BL/KsJ db/db mice [1] (after 2 hour, Compound J and/or metformin 150 mg/kg p.o.) was found to be 347.0 ± 21.2 mg/dL; in the data set on C57BL/KsJ db/db mice [1] (after 4 hour) it was 346.5 ± 34.6 mg/dL; with C57BL/KsJ db/db mice [1] (after 6 hour), 348.3 ± 30.7 mg/dL; in the data set on C57BL/KsJ db/db mice [1] (after 8 hour), 407.8 ± 40.0 mg/dL; with C57BL/KsJ db/db mice [1] (before (0 hour)) it was 515.7 ± 37.0 mg/dL. Moreover, the blood glucose lowering result with C57BL/KsJ db/db mice [1] (db/db mice, acute) was “lowered blood glucose significantly relative to controls”.
Regarding “Insulin: human recombinant insulin, Penfill R300 (Example Z) or Penfill N300 (Examples AA, BB, CC), Novo Nordisk”, the “Plasma Glucose, % of pretreatment values” in the data set on C57BL/KsJ db/db mice [2] (after 1 hour) is given as “(54.2 +/− 4.1) %”; in the data set with C57BL/KsJ db/db mice [2] (after 4 hours) it was “(71.4 +/− 4.1) %”; with C57BL/KsJ db/db mice [2] (after […]), “(61.1 +/− 4.9) %”; in the data set with C57BL/KsJ db/db mice [2] (before (0 hour)), “(100.0 +/− 0.0) %”. Moreover, the “Plasma Glucose” value in the data set on C57BL/KsJ db/db mice [2] (after 1 hour, Compound G 200 mg/kg p.o., insulin 1.5 U/kg s.c.) came out at 410.8 ± 34.4 mg/dL; with C57BL/KsJ db/db mice [2] (after 4 hours), 540.3 ± 35.9 mg/dL; with C57BL/KsJ db/db mice [2] (after […]), 463.2 ± 40.2 mg/dL; with C57BL/KsJ db/db mice [2] (before (0 hour)), 756.2 ± 15.2 mg/dL; in the data set on C57BL/KsJ db/db mice [3] (after 1 week, insulin adjusted daily, Compound G 0.2% food admixture) it was 297.1 ± 46.0 mg/dL; in the data set with C57BL/KsJ db/db mice [3] (after 2 weeks), 375.6 ± 53.5 mg/dL. In addition, the “Plasma Glucose” value came out at 282.4 ± 43.1 mg/dL in the data set with C57BL/KsJ db/db mice [3] (after 3 weeks); 736.5 ± 17.0 mg/dL in the data set with C57BL/KsJ db/db mice [3] (before (0 week)); 408.8 ± 15.3 mg/dL in the data set with C57BL/KsJ db/db mice [4] (after 1 week, insulin adjusted daily, Compound J 0.2% food admixture); 447.7 ± 17.6 mg/dL in the data set on C57BL/KsJ db/db mice [4] (after 2 weeks); 396.3 ± 39.3 mg/dL in the data set on C57BL/KsJ db/db mice [4] (after 3 weeks); 316.7 ± 17.2 mg/dL in the data set on C57BL/KsJ db/db mice [4] (after 4 weeks). The “Plasma Glucose” value stood at 617.2 ± 28.1 mg/dL in the data set on C57BL/KsJ db/db mice [4] (before (0 week)); 88.8 ± 16.8 mg/dL with Goto-Kakizaki (GK) rats (after 2 hour, Compound J 50 mg/kg p.o., insulin 1.5 U/kg s.c.); 71.3 ± 20.9 mg/dL in the data set with Goto-Kakizaki (GK) rats (after 4 hours); 90.7 ± 19.7 mg/dL in the data set with Goto-Kakizaki (GK) rats (after 6 hours); 163.7 ± 5.8 mg/dL in the data set with Goto-Kakizaki (GK) rats (before (0 hour)). In addition, the plasma glucose lowering entry with C57BL/KsJ db/db mice [2] (db/db mice, acute) is on record as “improved hyperglycemia within 2.5 hours”; with Goto-Kakizaki (GK) rats (GK rats, acute), “decreased plasma glucose within 2 hours”. The “Body Weight” value stood at 50.7 ± 1.5 g in the data set on C57BL/KsJ db/db mice [3] (after 1 week); 54.3 ± 1.2 g in the data set on C57BL/KsJ db/db mice [3] (after 2 weeks); 57.4 ± 1.6 g in the data set with C57BL/KsJ db/db mice [3] (after 3 weeks); 43.4 ± 2.2 g with C57BL/KsJ db/db mice [3] (before (0 week)); 57.9 ± 1.3 g in the data set with C57BL/KsJ db/db mice [4] (after 1 week); 59.7 ± 1.3 g in the data set on C57BL/KsJ db/db mice [4] (after 2 weeks). The results for the “Body Weight” value in the data set on C57BL/KsJ db/db mice [4] (after 3 weeks), in the data set with C57BL/KsJ db/db mice [4] (after 4 weeks) and with C57BL/KsJ db/db mice [4] (before (0 week)) were 61.4 ± 1.2 g, 64.2 ± 1.0 g and 54.9 ± 1.4 g, respectively. Besides, the “Insulin Dose required to adjust plasma glucose to 250-300 mg/dL” value in the data set with C57BL/KsJ db/db mice [3] (after 1 week) is listed as 753 +/− 72 U/kg; in the data set with C57BL/KsJ db/db mice [3] (after 2 weeks), 492 +/− 68 U/kg; with C57BL/KsJ db/db mice [3] (after 3 weeks), 306 +/− 67 U/kg; with C57BL/KsJ db/db mice [3] (before (0 week)) it was 548 +/− 18 U/kg. Moreover, in the data set on C57BL/KsJ db/db mice [3] (db/db mice, 3 weeks), the body weight increase entry was “increased body weight remarkably”. The “Insulin Dose required to achieve target blood glucose levels” value with C57BL/KsJ db/db mice [4] (after 1 week) is recorded as 495 +/− 32 U/kg; in the data set on C57BL/KsJ db/db mice [4] (after 2 weeks) it was 699 +/− 63 U/kg; in the data set on C57BL/KsJ db/db mice [4] (after 3 weeks) it was 760 +/− 95 U/kg; in the data set on C57BL/KsJ db/db mice [4] (after 4 weeks) it was 802 +/− 129 U/kg; in the data set with C57BL/KsJ db/db mice [4] (before (0 week)) it was 0 +/− 0 U/kg. In addition, the body weight gain result with C57BL/KsJ db/db mice [4] (db/db mice, 4 weeks of treatment) is on record as “resulted in an increase in body weight”. Also, the “Plasma Glucose, % of before” value is on record as “(55.0 +/− 11.0) %” in the data set with Goto-Kakizaki (GK) rats (after 2 hour), “(43.9 +/− 13.3) %” with Goto-Kakizaki (GK) rats (after 4 hours), “(55.4 +/− 12.4) %” in the data set on Goto-Kakizaki (GK) rats (after 6 hours) and “(100.0 +/− 0.0) %” with Goto-Kakizaki (GK) rats (before (0 hour)).
Take `CCOc1cc(CC(=O)N[C@@H](CC(C)C)c2ccccc2N2CCCCC2)ccc1C(=O)O` [Repaglinide]: the ED50 in data set [5] was 0.01 (2 h) mg/kg. Also, the “Gluc low,%” value in data set [5] (Dose 0.01) is reported as −21%.
As to `CCC1=C(C)CN(C(=O)NCCc2ccc(S(=O)(=O)NC(=O)N[C@H]3CC[C@H](C)CC3)cc2)C1=O` [Glimepiride], the ED50 in data set [5] is reported as 0.182 (2 h) mg/kg. For the same molecule, in data set [5] (Dose 0.1), the “Gluc low,%” value is −18%.
